Experimental data taken from ChEMBL document CHEMBL1201862, “PubChem BioAssay data set” (2004).
Activity calls are given as the source filed them.

Key:
[1] = target: T1, E3 ubiquitin-protein ligase XIAP (Homo sapiens, UniProt P98170); test: Counter Screen using XIAP-Bir3 for Chemical Antagonists of Bir1/2 domains of IAP-family anti-apoptotic proteins. [Related pubchem assays (depositor defined):AID1018, AID1449, AID1514, AID1638, AID1749, AID1750, AID488957, AID488963]
[2] = target: T1, E3 ubiquitin-protein ligase XIAP; test: small molecules displacing peptide from XIAP – biochemical, IAP family, fluorescence polarization (AID 1018); assay type: functional
[3] = target: T2, Polyadenylate-binding protein 1 (Homo sapiens, UniProt P11940); test: MLLE binding blockers, Cy5 peptide tracer – biochemical, fluorescence polarization, Cy5-PAM2 peptide, secondary, miRNA deadenylation inhibitor project, dose response (AID 602260); assay type: functional; details: read-out: IC50_Mean
T2 sequence (P11940 whole entry, the tested form may be a part): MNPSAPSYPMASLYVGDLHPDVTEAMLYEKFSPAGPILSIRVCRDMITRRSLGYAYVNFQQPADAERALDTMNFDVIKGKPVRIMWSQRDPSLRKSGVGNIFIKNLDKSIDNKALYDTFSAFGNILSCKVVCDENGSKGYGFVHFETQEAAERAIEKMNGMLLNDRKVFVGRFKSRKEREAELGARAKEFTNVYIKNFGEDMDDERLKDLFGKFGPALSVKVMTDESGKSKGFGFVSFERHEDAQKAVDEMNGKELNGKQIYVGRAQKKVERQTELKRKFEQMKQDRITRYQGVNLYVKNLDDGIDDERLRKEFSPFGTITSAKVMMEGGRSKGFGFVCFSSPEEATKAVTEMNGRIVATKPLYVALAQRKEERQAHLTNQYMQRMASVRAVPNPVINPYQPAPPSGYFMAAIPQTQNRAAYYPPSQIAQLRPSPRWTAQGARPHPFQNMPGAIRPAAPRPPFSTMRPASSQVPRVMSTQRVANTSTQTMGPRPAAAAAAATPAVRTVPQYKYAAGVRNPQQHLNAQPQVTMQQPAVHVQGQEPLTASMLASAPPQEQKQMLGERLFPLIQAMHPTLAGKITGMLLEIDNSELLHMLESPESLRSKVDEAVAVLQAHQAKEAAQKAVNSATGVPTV

[4] = target: T2, Polyadenylate-binding protein 1; test: MLLE domain peptide-binding blockers, IC50 – biochemical, fluorescence polarization, FITC-PAM2 peptide, dose response (AID 602259); assay type: functional; details: read-out: IC50_Mean
[5] = target: Peroxisome proliferator-activated receptor gamma/Nuclear receptor coactivator 1 (Homo sapiens, UniProt P37231); test: (§1) TR-FRET dose response biochemical High Throughput Screening assay for agonists of the steroid receptor coactivator 1 (SRC-1) recruitment by the peroxisome proliferator-activated receptor gamma (PPAR gamma): non-selective agonists. [Related pubchem assays (depositor defined):AID1300, AID1808, AID504735, AID631]; assay type: protein assay
Sequence of Peroxisome proliferator-activated receptor gamma/Nuclear receptor coactivator 1 (P37231 whole entry): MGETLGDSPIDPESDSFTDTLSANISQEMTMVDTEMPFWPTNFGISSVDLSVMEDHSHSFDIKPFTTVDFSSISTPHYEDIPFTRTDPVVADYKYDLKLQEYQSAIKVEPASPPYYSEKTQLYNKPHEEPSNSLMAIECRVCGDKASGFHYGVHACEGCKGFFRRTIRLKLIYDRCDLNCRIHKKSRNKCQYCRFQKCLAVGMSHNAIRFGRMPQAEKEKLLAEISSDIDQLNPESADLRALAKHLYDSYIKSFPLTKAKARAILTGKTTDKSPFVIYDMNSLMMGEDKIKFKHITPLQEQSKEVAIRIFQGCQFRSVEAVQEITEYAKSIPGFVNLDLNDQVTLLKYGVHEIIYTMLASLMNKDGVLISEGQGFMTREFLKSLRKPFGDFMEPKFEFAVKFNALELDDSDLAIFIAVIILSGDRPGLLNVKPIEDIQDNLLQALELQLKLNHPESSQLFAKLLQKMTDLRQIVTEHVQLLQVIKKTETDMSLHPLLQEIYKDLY
Sequence of Peroxisome proliferator-activated receptor gamma/Nuclear receptor coactivator 1 (Q15788 whole entry, further chain): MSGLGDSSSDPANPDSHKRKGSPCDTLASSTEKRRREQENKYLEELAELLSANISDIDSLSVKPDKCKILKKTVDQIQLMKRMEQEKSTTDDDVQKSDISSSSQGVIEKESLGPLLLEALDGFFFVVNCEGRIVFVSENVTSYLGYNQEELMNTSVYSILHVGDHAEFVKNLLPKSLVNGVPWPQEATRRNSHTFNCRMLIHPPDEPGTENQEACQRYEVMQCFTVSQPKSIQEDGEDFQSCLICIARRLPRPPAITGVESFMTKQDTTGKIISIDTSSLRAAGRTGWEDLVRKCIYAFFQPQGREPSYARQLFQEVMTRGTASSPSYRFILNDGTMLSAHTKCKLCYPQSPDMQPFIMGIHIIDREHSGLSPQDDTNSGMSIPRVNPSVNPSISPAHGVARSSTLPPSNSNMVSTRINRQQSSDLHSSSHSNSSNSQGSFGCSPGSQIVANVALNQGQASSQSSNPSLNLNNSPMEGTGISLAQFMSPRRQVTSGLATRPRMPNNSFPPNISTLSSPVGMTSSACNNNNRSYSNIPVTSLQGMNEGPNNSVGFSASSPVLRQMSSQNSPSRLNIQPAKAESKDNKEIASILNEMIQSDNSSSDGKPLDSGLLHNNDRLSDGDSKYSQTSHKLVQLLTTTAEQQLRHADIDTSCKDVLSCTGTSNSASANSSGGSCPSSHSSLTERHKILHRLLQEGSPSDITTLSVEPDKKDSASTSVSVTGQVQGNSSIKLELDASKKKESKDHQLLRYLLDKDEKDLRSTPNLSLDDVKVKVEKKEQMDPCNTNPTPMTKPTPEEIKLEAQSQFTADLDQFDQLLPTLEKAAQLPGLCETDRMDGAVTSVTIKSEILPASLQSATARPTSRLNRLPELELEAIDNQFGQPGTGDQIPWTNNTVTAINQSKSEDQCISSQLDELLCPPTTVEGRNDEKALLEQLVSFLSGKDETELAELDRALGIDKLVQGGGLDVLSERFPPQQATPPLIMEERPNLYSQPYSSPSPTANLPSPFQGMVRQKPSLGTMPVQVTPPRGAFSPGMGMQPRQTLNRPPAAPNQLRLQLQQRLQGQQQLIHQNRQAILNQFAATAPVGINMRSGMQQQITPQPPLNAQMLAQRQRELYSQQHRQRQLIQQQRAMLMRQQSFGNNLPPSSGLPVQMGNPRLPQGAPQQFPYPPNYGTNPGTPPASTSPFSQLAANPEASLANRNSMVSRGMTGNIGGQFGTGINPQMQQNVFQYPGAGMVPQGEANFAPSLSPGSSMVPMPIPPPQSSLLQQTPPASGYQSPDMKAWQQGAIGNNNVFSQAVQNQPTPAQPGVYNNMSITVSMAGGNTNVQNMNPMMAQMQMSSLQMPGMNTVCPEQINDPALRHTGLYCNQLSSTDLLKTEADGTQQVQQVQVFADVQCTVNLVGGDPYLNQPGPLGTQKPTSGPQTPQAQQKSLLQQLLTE

[6] = target: Peroxisome proliferator-activated receptor gamma/Nuclear receptor coactivator 3 (Homo sapiens, UniProt P37231); test: as §1, with “3 (SRC-3)” for “1 (SRC-1)”, “assays: 1301 (Confirmation screen.), 1048 (Primary screen.)]” for “assays (depositor defined):AID1300, AID1808, AID504735, AID631]”; assay type: functional
Sequence of Peroxisome proliferator-activated receptor gamma/Nuclear receptor coactivator 3 (P37231 whole entry): as the sequence (P37231 whole entry) above
Sequence of Peroxisome proliferator-activated receptor gamma/Nuclear receptor coactivator 3 (Q9Y6Q9 whole entry, further chain): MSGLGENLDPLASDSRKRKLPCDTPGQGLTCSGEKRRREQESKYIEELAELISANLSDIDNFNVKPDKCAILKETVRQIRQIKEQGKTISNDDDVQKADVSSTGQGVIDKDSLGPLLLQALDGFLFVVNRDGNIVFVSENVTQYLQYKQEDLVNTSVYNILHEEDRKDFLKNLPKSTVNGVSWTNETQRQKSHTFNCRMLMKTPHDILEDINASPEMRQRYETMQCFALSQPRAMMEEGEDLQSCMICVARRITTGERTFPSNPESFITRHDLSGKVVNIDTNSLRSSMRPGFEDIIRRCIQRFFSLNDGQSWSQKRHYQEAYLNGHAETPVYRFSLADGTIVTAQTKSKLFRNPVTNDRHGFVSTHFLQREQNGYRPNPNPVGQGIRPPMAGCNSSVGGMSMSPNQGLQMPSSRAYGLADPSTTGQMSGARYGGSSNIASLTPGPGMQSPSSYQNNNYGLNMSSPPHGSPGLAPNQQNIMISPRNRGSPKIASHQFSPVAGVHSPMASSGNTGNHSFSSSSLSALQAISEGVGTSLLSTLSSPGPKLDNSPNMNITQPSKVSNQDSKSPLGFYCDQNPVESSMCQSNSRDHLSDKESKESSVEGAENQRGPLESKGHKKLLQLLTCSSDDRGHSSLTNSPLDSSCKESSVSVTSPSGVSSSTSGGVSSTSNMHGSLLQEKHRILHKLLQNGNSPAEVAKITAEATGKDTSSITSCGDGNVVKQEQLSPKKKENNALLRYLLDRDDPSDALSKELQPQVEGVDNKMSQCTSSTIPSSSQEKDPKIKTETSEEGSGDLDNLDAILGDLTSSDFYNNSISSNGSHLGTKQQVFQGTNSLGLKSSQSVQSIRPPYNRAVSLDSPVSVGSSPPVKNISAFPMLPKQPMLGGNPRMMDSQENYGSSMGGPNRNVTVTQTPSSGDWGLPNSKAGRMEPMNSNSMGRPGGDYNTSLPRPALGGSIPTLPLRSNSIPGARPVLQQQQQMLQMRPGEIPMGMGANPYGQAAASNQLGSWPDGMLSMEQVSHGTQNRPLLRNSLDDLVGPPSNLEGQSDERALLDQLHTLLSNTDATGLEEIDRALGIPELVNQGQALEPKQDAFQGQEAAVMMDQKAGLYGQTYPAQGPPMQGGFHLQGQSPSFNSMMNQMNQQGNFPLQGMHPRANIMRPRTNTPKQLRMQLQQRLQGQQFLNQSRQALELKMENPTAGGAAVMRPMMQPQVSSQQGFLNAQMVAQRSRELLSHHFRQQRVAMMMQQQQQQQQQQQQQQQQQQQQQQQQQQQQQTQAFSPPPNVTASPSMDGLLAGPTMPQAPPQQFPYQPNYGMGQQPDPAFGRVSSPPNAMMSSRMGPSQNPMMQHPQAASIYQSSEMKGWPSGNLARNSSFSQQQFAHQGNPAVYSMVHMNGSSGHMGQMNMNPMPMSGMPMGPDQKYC

[7] = target: Peroxisome proliferator-activated receptor gamma/Nuclear receptor coactivator 2 (Homo sapiens, UniProt P37231); test: TR-FRET dose response biochemical High Throughput Screening assay for agonists of the steroid receptor coactivator 2 (SRC-2) recruitment by the peroxisome proliferator-activated receptor gamma (PPAR gamma): non-selective agonists. [Related pubchem assays: 1297, 1032 ]; assay type: functional
Coagulation factor XII = target: T3, Coagulation factor XII (Homo sapiens, UniProt P00748); assay type: functional;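 further: activated factor XIIa alpha cleaving a fluorogenic AMC peptide substrate; inhibitor potency from loss of enzyme activity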
T3 sequence (P00748 whole entry): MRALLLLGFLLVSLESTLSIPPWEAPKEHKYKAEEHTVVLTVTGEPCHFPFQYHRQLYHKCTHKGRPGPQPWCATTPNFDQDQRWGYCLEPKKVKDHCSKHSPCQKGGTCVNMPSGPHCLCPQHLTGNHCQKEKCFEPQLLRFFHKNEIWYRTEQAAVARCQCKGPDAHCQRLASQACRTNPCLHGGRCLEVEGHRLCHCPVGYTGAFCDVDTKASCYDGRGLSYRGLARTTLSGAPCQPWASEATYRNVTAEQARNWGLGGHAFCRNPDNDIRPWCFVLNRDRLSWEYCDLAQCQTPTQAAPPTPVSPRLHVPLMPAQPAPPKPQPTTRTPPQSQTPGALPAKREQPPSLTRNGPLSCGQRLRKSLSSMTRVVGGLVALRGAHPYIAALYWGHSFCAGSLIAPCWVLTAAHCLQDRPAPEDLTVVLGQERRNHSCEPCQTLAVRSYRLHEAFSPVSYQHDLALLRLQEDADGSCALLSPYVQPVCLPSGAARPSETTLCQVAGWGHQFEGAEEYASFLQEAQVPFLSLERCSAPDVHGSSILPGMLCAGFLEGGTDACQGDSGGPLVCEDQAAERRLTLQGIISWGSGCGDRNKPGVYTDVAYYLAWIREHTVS

[8] = target: T4, Type-1 angiotensin II receptor (Homo sapiens, UniProt P30556); test: agonist activity at AGTR1 – cell-based, uHTS hits, selectivity assay for APJ receptor agonist project, dose response (AID 488865); assay type: functional;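 further: beta-arrestin recruitment to AT1 measured by enzyme fragment complementation luminescence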
T4 sequence (P30556 whole entry): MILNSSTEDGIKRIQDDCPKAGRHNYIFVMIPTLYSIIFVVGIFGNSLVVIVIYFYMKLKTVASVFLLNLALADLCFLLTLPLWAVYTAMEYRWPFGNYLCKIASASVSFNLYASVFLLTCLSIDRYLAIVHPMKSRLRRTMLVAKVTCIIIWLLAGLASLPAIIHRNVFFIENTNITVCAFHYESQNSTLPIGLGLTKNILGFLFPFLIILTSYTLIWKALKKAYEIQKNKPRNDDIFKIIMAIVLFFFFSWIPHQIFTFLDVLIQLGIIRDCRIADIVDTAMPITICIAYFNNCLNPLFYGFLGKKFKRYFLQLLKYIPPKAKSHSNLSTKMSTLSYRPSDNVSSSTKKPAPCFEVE

[9] = target: SWI/SNF-related matrix-associated actin-dependent regulator of chromatin subfamily A member 2 (Homo sapiens, UniProt P51531); test: Luminescence-based cell-based high throughput dose response assay to identify activators of the function of SWI/SNF related, matrix associated, actin dependent regulator of chromatin, subfamily a, member 2 (SMARCA2, BRM).; assay type: functional
[10] = Counterscreen for activators of the function of SWI/SNF related, matrix associated, actin dependent regulator of chromatin, subfamily a, member 2 (SMARCA2, BRM): Luminescence-based cell-based high throughput dose response assay to identify non-selective compounds using the VP16 reporter assay.; assay type: functional
SUMO-activating enzyme = SUMO-activating enzyme (Homo sapiens, UniProt Q9UBT2); test: blockers of UBC9-mediated SUMO conjugation – biochemical, AlphaScreen, SUMOylation inhibitor project, confirmation (AID 2018); assay type: functional
[11] = target: T5, Corticotropin-releasing factor receptor 2/Corticotropin-releasing factor-binding protein (Homo sapiens, UniProt P24387+Q13324); test: Dose Response confirmation of uHTS hits for small molecule antagonists of the CRF-binding protein and CRF-R2 receptor complex.; assay type: functional; details: read-out: IC50_Mean
T5 sequence (Q13324 whole entry): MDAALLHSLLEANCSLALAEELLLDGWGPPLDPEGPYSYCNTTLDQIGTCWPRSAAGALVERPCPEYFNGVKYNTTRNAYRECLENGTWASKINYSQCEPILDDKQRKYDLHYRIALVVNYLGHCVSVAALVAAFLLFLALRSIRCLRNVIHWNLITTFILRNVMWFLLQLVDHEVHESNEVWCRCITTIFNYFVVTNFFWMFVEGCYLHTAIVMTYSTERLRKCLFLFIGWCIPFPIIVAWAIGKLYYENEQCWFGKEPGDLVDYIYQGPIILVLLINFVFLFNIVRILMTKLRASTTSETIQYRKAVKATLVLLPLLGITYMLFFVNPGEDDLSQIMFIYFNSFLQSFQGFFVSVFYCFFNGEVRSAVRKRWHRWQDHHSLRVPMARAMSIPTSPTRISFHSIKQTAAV
T5 sequence (P24387 whole entry): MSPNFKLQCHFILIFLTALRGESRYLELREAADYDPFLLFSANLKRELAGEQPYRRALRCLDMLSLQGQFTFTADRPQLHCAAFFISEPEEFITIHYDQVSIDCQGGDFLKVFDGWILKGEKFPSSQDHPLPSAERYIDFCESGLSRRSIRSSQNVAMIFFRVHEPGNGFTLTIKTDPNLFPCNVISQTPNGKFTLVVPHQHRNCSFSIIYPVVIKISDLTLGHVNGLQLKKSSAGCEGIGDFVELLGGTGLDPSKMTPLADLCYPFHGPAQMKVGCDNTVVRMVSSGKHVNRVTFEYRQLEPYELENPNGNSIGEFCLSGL

[12] = target: T5, Corticotropin-releasing factor receptor 2/Corticotropin-releasing factor-binding protein; test: activators of CRF receptor 2 with binding protein – uHTS hits, confirmation (AID 602473); assay type: functional; details: read-out: EC50_Mean
[13] = target: Peroxisome proliferator-activated receptor gamma/Nuclear receptor corepressor 2 (Homo sapiens, UniProt P37231+Q9Y618); test: Counterscreen for NR2E3 inverse agonists: TR-FRET-based biochemical high throughput dose response assay to identify inverse agonists of the interaction between peroxisome proliferator-activated receptor gamma (PPARg) and nuclear receptor co-repressor 2 (NCOR2).; assay type: functional
[14] = target: Photoreceptor-specific nuclear receptor (Homo sapiens, UniProt Q9Y5X4); test: ligands suppressing NR2E3 nuclear receptor activity – biochemical, TR-FRET, dose response (AID 463256); assay type: functional
INS1 = test: INS-1E survival protection against cytokine death – cell-based, luminescence, retest, dose response (AID 449756); assay type: functional; details: Rattus norvegicus;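 further: cell death triggered by IL-1 beta plus TNF-alpha plus IFN-gamma mixture; protective hits raise ATP signal compared with cytokine alone wells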
[15] = target: T6, COUP transcription factor 2 (Homo sapiens, UniProt P24468); test: Luminescence-based cell-based high throughput dose response assay to identify inhibitors of COUP-TFII (NR2F2).; assay type: functional;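 further: HEK293 cells transiently cotransfected with COUP-TFII expression vector and reporter; luciferase reporter luminescence driven by COUP-TFII from the pX2-168 reporter plasmid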
T6 sequence (P24468 whole entry): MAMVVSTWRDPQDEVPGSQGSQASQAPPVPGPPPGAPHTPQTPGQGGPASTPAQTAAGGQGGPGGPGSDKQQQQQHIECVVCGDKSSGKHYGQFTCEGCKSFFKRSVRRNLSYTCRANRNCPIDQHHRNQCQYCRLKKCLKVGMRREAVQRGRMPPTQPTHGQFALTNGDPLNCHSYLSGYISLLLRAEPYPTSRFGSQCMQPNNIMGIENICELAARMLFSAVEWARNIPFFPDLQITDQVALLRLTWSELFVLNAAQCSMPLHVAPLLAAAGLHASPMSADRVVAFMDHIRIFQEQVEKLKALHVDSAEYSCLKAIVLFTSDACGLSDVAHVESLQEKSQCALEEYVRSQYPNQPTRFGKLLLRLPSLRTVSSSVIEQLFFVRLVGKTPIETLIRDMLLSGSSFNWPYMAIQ

Troponin, cardiac muscle = Troponin, cardiac muscle (Homo sapiens, UniProt P19429+P45379+P63316); test: Fluorescence-based biochemical high throughput dose response assay for activators of the calcium sensitivity of cardiac Regulated Thin Filaments (RTF). [Related pubchem assays (depositor defined):AID493008, AID493018, AID504382, AID504383]; assay type: protein-complex assay
[16] = target: Glyceraldehyde-3-phosphate dehydrogenase (Homo sapiens, UniProt P04406)
[17] = target: T7, Alkaline phosphatase, tissue-nonspecific isozyme (Homo sapiens, UniProt P05186); test: potency against alkaline phosphatase TNAP – biochemical, luminescent, dose response, SAR follow-up (AID 1056)
T7 sequence (P05186 whole entry): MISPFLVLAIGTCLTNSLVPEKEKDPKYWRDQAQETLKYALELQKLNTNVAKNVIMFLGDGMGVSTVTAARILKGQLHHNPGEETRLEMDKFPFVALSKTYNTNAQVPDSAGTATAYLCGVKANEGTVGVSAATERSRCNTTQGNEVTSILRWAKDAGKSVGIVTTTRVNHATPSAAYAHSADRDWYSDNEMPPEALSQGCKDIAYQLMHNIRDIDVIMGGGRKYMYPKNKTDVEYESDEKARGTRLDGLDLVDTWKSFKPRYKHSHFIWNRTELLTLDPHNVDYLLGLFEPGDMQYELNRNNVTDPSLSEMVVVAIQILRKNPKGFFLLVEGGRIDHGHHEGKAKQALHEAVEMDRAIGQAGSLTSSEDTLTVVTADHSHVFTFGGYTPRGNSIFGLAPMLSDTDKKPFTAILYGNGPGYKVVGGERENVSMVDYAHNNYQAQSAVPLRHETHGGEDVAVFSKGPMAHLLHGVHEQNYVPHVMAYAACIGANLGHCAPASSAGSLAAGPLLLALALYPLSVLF

T1 sequence (P98170 whole entry): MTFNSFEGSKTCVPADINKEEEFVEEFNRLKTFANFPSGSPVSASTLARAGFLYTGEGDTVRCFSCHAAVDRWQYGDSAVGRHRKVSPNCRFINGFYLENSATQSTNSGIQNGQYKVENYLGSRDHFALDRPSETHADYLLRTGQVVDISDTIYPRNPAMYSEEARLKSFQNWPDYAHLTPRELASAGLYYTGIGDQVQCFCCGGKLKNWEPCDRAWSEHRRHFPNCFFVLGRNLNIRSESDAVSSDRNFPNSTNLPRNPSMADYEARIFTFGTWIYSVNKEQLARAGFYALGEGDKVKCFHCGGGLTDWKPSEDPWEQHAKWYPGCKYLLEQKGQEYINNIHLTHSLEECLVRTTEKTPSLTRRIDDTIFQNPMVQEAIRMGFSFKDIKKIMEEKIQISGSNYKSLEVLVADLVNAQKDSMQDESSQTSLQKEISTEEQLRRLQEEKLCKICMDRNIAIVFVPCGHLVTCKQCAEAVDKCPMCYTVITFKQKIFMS

Which IC50 [1] does the source give for `Cc1cccc(N(CC(N)=O)C2SC(=O)N(c3ccccc3)C2=O)c1` (stereo not drawn) here?
The IC50 was > 100 µM (inactive).

And the IC50 [2]?
The IC50 was > 100 µM (not active).

And the IC50 [3]?
The IC50 was > 66 µM (inactive).

What about the IC50 [4] of the same compound?
Its IC50 is > 66 µM (inactive).

What does the source list for `Cc1ccc(-c2cc(C(=O)NCc3cn(C)nc3C)c3cc(Br)ccc3n2)cc1`?
EC50 [5]: 13.8 µM (inactive); EC50 [6]: 40.7 µM (not active); EC50 [7]: 10.8 µM (not active)

Which IC50 (Coagulation factor XII) does the source give for `CC1CCN(S(=O)(=O)c2ccc3nc(-c4ccccn4)cc(C(=O)NCCN(C)Cc4ccccc4)c3c2)CC1` here?
Its IC50 is > 50 µM (inactive).

And the EC50 [8]?
The EC50 was > 100 µM (inactive).

What about the EC50 [9] of the same compound?
Its EC50 is > 91.2 µM (inactive).

What about the EC50 [10] of the same compound?
The EC50 was > 91.2 µM (inactive).

Which IC50 (SUMO-activating enzyme) does the source give for `CN(C)c1ccc(NC(=O)c2sc(SCC(=O)Nc3ccc(Br)cc3)nc2N)cc1` here?
Its IC50 is 41.5 µM (active).

With `CC1=C(C(=O)NCc2ccccn2)C2(CCC(C)CC2)OC1=O` (stereo not drawn) as the compound, how does the IC50 [1] read?
The IC50 was > 100 µM (inactive).

What about the IC50 [2] of the same compound?
Its IC50 is > 100 µM (not active).

What about the IC50 [11] of the same compound?
The IC50 was > 47.1 µM (inactive).

And the EC50 [12]?
The EC50 was > 53 µM (inactive).

With `Cc1nc2ccc3nc(NC(=O)c4ccc5c(c4)OCCO5)sc3c2s1` as the compound, how does the EC50 [5] read?
Its EC50 is 4.06 µM (active).

What about the EC50 [6] of the same compound?
Its EC50 is 10.3 µM (not active).

And the IC50 [13]?
Its IC50 is 1.23 µM (active).

What about the IC50 [14] of the same compound?
Its IC50 is 0.813 µM (active).

What about the EC50 [7] of the same compound?
Its EC50 is 3.98 µM (active).

With `CC(C)(C)OC(=O)NCCCCCc1cn([C@@H](CO)C(=O)NCCCCCCCCCCC(=O)N2CCN(C(=O)OC(C)(C)C)CC2)nn1` as the compound, how does the EC50 [8] read?
Its EC50 is > 100 µM (inactive).

What about the AC50 (INS1) of the same compound?
The AC50 was 5.45 µM (active).

And the IC50 [15]?
The IC50 was 3.28 µM (active).

With `CCc1ccc(C(=O)NNC(=O)c2cccc(N3C(=O)CCC3=O)c2)cc1` as the compound, how does the EC50 (Troponin, cardiac muscle) read?
Its EC50 is > 71.5 µM (inactive).

Which IC50 [16] does the source give for `COc1ccc(S(=O)(=O)Nc2ccc3ccccc3c2)c(OC)c1` here?
The IC50 was > 10 µM (inconclusive).

And the IC50 [17]?
The IC50 was > 10 µM (inactive).

For `O=C(Nc1ccc(C(=O)N2CCOCC2)cc1)Nc1cccc(Cl)c1`, which EC50 (Troponin, cardiac muscle) is on record?
Its EC50 is > 71.5 µM (inactive).
